Source: ChEMBL document CHEMBL5212743, “Selectivity Literature for EUbOPEN Chemogenomics Library wave 3” (2023)

How the values were obtained:
[1] = molecular target: T1, 5-hydroxytryptamine receptor 2B (Homo sapiens, UniProt P41595); assay: Selectivity interaction (CEREP Wide Ligand screening panel (ion channels, receptors, enzymes)) EUB0000304b HTR2B; details: at 10 µM
[2] = molecular target: Muscarinic acetylcholine receptor M3 (Homo sapiens) (UniProt P20309); assay: Selectivity interaction (CEREP Wide Ligand screening panel (ion channels, receptors, enzymes)) EUB0000304b CHRM3; details: at 10 µM
[3] = molecular target: Adenosine receptor A2b (Homo sapiens) (UniProt P29275); assay: Selectivity interaction (CEREP Wide Ligand screening panel (ion channels, receptors, enzymes)) EUB0000304b ADORA2B; details: at 10 µM
[4] = molecular target: Gastrin/cholecystokinin type B receptor (Homo sapiens) (UniProt P32239); assay: Selectivity interaction (CEREP Wide Ligand screening panel (ion channels, receptors, enzymes)) EUB0000304b CCKBR; details: at 10 µM
[5] = molecular target: Melatonin receptor type 1B (Homo sapiens) (UniProt P49286); assay: Selectivity interaction (CEREP Wide Ligand screening panel (ion channels, receptors, enzymes)) EUB0000304b MTNR1B; details: at 10 µM
[6] = molecular target: Kappa-type opioid receptor (Homo sapiens, UniProt P41145); assay: Selectivity interaction (CEREP Wide Ligand screening panel (ion channels, receptors, enzymes)) EUB0000304b OPRK1; details: at 10 µM
[7] = molecular target: Mu-type opioid receptor (Homo sapiens, UniProt P35372); assay: Selectivity interaction (CEREP Wide Ligand screening panel (ion channels, receptors, enzymes)) EUB0000304b OPRM1; details: at 10 µM
[8] = molecular target: Substance-P receptor (Homo sapiens) (UniProt P25103); assay: Selectivity interaction (CEREP Wide Ligand screening panel (ion channels, receptors, enzymes)) EUB0000304b TACR1; details: at 10 µM
[9] = molecular target: T2, Prostaglandin G/H synthase 2 (Homo sapiens) (UniProt P35354); assay: Selectivity interaction (CEREP Wide Ligand screening panel (ion channels, receptors, enzymes)) EUB0000304b PTGS2; details: at 10 µM
T2 sequence (whole entry): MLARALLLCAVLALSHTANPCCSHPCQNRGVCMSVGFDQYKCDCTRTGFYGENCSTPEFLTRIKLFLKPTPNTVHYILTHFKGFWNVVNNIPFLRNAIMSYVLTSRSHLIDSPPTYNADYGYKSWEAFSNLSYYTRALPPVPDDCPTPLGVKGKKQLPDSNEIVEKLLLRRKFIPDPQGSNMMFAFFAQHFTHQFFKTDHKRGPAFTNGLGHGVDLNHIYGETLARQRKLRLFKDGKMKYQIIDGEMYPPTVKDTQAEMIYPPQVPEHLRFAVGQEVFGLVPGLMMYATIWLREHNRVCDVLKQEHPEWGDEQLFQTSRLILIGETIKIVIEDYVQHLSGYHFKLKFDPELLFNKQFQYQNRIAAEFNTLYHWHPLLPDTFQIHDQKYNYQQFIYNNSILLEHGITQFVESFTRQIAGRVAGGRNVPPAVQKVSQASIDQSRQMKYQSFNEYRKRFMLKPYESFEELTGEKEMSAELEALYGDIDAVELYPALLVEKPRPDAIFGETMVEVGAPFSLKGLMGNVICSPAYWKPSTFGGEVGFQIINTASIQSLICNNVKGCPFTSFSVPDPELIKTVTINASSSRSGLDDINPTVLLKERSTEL

[10] = molecular target: High affinity choline transporter 1 (Homo sapiens) (UniProt Q9GZV3); assay: Selectivity interaction (CEREP Wide Ligand screening panel (ion channels, receptors, enzymes)) EUB0000304b SLC5A7; details: at 10 µM
[11] = molecular target: Sodium channel protein type 2 subunit alpha (Homo sapiens, UniProt Q99250); assay: Selectivity interaction (CEREP Wide Ligand screening panel (ion channels, receptors, enzymes)) EUB0000304b SCN2A; details: at 10 µM
[12] = molecular target: T3, Gamma-aminobutyric acid receptor subunit alpha-1 (Homo sapiens, UniProt P14867); assay: Selectivity interaction (GPCR panel (PDSP screen)) EUB0000304b GABRA1
T3 sequence (P14867 whole entry): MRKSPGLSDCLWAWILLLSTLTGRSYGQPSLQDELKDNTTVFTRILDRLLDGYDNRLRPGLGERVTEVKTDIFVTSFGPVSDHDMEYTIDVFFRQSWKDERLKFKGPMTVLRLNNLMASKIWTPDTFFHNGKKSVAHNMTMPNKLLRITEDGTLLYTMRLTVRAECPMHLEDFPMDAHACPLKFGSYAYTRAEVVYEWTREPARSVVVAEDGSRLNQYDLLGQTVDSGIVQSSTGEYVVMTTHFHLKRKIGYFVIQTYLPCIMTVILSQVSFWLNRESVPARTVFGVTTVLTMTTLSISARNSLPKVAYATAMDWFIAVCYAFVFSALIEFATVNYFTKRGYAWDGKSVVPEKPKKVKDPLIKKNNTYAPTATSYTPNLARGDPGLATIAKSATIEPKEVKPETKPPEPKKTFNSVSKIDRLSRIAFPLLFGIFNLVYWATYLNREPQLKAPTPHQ

[13] = molecular target: D(1A) dopamine receptor (Homo sapiens, UniProt P21728); assay: Selectivity interaction (GPCR panel (PDSP screen)) EUB0000342a DRD1
[14] = molecular target: Histamine H4 receptor (Homo sapiens, UniProt Q9H3N8); assay: Selectivity interaction (GPCR panel (PDSP screen)) EUB0000342a HRH4
[15] = molecular target: 5-hydroxytryptamine receptor 2A (Homo sapiens, UniProt P28223); assay: Selectivity interaction (GPCR panel (PDSP screen)) EUB0000540a HTR2A
[16] = molecular target: T1, 5-hydroxytryptamine receptor 2B; assay: Selectivity interaction (GPCR panel (PDSP screen)) EUB0000540a HTR2B
[17] = molecular target: 5-hydroxytryptamine receptor 2C (Homo sapiens, UniProt P28335); assay: Selectivity interaction (GPCR panel (PDSP screen)) EUB0000540a HTR2C
[18] = molecular target: T4, Alpha-2C adrenergic receptor (Homo sapiens, UniProt P18825); assay: Selectivity interaction (GPCR panel (PDSP screen)) EUB0000540a ADRA2C
T4 sequence (P18825 whole entry): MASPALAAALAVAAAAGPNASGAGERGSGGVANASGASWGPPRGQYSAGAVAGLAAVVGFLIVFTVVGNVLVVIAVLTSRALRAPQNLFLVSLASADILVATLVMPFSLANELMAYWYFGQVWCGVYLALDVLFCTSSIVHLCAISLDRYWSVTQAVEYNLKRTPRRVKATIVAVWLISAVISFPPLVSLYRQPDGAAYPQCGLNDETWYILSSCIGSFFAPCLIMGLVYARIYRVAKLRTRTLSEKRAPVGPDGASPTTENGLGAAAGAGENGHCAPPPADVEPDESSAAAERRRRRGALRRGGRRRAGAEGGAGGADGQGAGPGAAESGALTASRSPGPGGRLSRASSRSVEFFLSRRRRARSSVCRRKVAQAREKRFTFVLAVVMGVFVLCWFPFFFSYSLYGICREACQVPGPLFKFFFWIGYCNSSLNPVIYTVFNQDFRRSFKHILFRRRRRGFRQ

[19] = molecular target: Sigma non-opioid intracellular receptor 1 (Homo sapiens, UniProt Q99720); assay: Selectivity interaction (GPCR panel (PDSP screen)) EUB0000540a SIGMAR1
[20] = molecular target: Mitotic checkpoint serine/threonine-protein kinase BUB1 (Homo sapiens) (UniProt O43683); assay: Selectivity interaction (GPCR panel (PDSP screen)) EUB0000540a BUB1; details: at 1 µM
[21] = molecular target: Serine/threonine-protein kinase WNK2 (Homo sapiens) (UniProt Q9Y3S1); assay: Selectivity interaction (GPCR panel (PDSP screen)) EUB0000540a WNK2; details: at 1 µM
[22] = molecular target: T3, Gamma-aminobutyric acid receptor subunit alpha-1; assay: Selectivity interaction (GPCR panel (PDSP screen)) EUB0000540a GABRA1
[23] = molecular target: Sigma intracellular receptor 2 (Homo sapiens, UniProt Q5BJF2); assay: Selectivity interaction (GPCR panel (PDSP screen)) EUB0000540a TMEM97
[24] = molecular target: T5, Mitogen-activated protein kinase kinase kinase 13 (Homo sapiens) (UniProt O43283); assay: Selectivity interaction (KinomeScan (DiscoverX)) EUB0000540a MAP3K13; details: at 1 µM
T5 sequence (whole entry): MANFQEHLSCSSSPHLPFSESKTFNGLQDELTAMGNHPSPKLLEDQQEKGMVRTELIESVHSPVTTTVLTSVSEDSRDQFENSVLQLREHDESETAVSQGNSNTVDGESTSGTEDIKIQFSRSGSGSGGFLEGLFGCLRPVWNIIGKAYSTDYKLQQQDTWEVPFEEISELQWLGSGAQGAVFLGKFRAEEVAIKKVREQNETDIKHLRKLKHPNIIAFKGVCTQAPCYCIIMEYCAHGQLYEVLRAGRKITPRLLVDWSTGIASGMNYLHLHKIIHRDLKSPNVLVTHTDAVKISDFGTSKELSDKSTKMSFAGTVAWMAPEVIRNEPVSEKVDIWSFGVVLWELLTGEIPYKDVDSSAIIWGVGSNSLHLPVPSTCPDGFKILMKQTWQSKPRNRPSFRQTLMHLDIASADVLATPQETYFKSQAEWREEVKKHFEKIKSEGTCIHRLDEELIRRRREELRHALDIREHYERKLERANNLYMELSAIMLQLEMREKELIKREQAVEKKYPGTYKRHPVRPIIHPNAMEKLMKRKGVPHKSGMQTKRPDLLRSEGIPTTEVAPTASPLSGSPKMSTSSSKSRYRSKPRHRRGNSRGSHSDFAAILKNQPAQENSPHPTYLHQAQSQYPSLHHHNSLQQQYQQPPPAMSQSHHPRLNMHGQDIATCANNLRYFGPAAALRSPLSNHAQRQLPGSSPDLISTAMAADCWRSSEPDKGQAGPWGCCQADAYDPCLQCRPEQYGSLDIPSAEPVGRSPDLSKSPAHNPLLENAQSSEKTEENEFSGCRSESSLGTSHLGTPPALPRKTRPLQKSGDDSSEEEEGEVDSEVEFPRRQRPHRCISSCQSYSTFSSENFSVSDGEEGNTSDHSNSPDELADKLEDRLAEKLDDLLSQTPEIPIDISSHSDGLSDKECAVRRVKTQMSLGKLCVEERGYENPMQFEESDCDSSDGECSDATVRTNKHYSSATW

[25] = molecular target: T3, Gamma-aminobutyric acid receptor subunit alpha-1; assay: Selectivity interaction (GPCR panel (PDSP screen)) EUB0000306b GABRA1
[26] = molecular target: T6, Serine/threonine-protein kinase TAO3 (Homo sapiens) (UniProt Q9H2K8); assay: Selectivity interaction (KinomeScan (DiscoverX)) EUB0000306b TAOK3; details: at 1 µM
T6 sequence (whole entry): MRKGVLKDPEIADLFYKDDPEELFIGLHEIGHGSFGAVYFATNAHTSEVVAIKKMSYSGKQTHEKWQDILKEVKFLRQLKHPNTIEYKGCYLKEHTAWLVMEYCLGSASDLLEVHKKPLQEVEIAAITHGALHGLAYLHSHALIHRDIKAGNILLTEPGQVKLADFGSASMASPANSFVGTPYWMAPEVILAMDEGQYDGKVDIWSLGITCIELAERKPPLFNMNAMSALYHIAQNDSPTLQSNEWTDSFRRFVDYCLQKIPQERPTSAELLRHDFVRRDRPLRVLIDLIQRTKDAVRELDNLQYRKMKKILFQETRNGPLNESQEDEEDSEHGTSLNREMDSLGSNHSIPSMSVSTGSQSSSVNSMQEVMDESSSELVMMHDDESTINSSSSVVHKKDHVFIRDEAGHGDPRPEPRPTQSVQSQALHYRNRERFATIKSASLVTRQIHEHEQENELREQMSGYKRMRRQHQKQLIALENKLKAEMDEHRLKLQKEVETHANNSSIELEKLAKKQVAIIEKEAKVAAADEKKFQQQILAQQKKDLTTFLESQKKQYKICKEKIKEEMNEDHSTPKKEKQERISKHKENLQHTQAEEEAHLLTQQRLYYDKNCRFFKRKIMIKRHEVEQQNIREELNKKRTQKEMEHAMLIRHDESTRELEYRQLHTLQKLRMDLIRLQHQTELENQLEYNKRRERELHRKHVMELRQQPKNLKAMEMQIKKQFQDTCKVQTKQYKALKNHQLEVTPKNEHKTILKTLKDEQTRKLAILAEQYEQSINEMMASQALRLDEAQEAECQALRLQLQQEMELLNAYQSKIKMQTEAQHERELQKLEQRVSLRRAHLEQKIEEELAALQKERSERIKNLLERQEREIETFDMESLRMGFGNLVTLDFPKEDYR

[27] = system: Mast/stem cell growth factor receptor Kit (Homo sapiens), P10721 [L576P]; assay: Selectivity interaction (KinomeScan (DiscoverX)) EUB0000306b KIT; details: at 1 µM
[28] = molecular target: Phosphatidylinositol 4,5-bisphosphate 3-kinase catalytic subunit alpha isoform (Homo sapiens, UniProt P42336); assay: Selectivity interaction (KinomeScan (DiscoverX)) EUB0000306b PIK3CA; details: at 1 µM
Chain of Phosphatidylinositol 4,5-bisphosphate 3-kinase catalytic subunit alpha isoform (P42336 whole entry, canonical isoform): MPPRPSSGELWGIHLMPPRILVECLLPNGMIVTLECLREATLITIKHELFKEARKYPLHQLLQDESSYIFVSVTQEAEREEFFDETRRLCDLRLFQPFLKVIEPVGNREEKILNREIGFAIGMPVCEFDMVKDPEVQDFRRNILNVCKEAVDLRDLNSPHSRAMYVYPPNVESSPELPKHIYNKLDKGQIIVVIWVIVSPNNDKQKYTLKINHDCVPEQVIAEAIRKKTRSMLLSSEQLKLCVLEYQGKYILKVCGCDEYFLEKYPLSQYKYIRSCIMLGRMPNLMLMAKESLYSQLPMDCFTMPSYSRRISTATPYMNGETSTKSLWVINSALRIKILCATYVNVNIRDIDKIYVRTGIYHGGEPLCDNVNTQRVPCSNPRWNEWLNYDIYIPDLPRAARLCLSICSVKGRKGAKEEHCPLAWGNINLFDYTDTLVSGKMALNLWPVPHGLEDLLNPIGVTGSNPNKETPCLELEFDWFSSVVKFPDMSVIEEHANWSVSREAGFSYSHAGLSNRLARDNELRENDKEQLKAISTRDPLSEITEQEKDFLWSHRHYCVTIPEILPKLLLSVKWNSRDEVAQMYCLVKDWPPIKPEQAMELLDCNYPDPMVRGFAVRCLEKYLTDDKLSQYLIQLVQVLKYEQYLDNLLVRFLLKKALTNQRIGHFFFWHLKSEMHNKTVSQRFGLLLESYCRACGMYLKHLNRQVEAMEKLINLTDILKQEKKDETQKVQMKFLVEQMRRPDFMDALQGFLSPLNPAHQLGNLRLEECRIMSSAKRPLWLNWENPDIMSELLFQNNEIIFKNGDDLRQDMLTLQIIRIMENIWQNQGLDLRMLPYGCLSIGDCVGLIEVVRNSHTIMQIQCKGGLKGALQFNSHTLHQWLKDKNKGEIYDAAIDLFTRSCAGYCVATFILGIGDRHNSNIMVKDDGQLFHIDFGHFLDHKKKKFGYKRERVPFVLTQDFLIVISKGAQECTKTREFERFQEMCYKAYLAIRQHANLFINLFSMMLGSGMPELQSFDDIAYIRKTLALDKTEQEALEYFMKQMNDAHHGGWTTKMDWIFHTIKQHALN

T1 sequence (P41595 whole entry): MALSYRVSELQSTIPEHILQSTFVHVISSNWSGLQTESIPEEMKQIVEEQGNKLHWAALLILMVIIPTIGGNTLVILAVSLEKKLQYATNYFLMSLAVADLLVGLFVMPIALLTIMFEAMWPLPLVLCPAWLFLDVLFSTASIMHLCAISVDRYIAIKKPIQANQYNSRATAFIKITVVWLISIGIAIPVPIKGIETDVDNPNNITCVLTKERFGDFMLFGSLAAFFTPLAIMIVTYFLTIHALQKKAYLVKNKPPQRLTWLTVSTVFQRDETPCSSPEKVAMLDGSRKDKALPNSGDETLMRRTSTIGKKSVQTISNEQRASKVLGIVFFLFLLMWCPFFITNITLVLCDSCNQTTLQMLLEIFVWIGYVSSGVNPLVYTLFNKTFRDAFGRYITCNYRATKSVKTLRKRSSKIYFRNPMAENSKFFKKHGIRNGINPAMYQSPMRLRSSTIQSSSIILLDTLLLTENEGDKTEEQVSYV
Chain of Mitotic checkpoint serine/threonine-protein kinase BUB1 (Homo sapiens) (O43683 whole entry, looked up): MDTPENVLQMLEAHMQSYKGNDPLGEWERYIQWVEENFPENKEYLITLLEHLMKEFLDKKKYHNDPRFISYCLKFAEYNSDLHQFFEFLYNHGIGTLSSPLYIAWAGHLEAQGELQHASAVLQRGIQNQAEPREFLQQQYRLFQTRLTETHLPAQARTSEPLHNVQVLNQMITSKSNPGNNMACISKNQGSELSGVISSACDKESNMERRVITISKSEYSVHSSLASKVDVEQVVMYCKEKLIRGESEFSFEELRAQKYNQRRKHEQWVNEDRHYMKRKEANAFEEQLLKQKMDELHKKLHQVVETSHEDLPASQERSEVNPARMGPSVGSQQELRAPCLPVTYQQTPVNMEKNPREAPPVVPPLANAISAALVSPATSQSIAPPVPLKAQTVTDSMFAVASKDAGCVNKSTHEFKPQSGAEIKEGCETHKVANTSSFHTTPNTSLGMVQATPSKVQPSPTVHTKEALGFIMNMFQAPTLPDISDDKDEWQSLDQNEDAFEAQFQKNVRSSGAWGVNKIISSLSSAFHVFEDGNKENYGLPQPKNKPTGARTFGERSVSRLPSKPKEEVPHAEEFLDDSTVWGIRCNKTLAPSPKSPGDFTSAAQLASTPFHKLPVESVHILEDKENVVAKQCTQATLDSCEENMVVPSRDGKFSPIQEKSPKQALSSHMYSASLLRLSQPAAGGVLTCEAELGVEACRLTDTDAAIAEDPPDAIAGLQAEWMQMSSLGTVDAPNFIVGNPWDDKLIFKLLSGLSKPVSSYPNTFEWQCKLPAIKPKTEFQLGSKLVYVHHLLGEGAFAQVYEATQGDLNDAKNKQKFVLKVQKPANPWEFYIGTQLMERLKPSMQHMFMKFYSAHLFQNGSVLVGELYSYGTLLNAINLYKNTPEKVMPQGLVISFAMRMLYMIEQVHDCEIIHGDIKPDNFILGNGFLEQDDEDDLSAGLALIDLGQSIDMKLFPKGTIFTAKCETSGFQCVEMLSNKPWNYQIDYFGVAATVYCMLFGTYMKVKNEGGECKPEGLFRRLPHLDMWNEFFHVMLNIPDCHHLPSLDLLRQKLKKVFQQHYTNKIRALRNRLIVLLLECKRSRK
Chain of Sigma non-opioid intracellular receptor 1 (Q99720 whole entry): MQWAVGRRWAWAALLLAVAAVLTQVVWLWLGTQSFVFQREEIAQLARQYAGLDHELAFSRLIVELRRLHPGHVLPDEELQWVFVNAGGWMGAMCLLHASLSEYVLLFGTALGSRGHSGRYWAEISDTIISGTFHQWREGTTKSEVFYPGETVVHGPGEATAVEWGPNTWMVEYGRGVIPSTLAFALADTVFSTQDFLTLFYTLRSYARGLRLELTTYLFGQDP
Chain of Adenosine receptor A2b (Homo sapiens) (P29275 whole entry): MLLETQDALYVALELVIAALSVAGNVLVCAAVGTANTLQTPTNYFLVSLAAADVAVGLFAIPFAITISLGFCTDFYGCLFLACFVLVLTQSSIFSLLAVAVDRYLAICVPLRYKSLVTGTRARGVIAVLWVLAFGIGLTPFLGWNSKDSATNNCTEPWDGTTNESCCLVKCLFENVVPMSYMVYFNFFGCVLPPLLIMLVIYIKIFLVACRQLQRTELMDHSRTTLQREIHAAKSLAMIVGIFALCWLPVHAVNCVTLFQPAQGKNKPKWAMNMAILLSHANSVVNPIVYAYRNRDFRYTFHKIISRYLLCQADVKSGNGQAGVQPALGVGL
Chain of Gastrin/cholecystokinin type B receptor (Homo sapiens) (P32239 whole entry): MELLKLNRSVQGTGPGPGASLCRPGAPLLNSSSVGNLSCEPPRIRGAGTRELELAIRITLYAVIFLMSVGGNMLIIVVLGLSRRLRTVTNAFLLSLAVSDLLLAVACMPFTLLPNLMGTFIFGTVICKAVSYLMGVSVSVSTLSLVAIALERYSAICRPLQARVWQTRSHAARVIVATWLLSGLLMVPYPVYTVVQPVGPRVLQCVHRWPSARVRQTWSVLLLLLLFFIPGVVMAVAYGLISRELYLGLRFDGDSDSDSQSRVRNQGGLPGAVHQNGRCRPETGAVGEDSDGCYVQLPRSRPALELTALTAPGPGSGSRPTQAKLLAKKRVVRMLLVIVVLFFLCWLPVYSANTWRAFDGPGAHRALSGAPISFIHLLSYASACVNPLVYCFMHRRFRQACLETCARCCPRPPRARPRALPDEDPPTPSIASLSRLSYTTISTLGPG
Chain of Mu-type opioid receptor (P35372 whole entry): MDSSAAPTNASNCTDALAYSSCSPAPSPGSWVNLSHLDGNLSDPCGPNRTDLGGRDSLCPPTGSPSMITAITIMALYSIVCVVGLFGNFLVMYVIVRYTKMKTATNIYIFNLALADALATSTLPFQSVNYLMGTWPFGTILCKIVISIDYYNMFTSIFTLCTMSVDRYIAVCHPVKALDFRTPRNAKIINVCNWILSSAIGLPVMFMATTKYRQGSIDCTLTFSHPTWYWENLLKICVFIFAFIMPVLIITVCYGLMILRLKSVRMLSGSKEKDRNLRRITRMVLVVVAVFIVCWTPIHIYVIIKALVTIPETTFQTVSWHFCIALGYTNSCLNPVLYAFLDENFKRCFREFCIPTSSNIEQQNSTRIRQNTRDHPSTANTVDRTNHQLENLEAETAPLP
Chain of Histamine H4 receptor (Q9H3N8 whole entry): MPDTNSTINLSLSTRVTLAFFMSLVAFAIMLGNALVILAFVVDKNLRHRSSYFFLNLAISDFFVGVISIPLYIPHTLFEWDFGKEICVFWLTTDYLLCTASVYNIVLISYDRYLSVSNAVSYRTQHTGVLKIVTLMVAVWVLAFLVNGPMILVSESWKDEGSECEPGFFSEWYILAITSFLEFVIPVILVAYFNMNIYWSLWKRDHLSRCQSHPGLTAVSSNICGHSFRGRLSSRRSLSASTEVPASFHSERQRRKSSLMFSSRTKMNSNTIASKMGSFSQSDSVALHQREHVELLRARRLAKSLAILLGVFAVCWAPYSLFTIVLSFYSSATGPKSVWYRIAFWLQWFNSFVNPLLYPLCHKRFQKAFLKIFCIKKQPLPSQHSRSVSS
Chain of Sigma intracellular receptor 2 (Q5BJF2 whole entry): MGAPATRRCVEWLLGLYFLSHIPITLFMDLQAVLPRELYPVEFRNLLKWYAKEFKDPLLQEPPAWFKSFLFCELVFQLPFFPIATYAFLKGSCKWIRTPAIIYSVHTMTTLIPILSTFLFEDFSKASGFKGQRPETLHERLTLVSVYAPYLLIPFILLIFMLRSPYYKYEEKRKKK
Chain of Melatonin receptor type 1B (Homo sapiens) (P49286 whole entry): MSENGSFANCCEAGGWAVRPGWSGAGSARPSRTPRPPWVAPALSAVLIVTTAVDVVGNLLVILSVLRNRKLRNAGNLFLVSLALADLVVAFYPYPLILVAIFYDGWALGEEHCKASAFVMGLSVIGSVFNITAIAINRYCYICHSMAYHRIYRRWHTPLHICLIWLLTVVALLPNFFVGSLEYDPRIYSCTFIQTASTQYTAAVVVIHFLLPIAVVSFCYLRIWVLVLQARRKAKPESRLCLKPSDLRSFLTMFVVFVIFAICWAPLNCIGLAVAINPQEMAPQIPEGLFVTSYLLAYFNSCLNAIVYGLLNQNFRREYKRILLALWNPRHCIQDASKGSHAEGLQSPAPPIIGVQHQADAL

C[C@H](c1ccc(F)cc1)N(Cc1cccc(C(=O)O)c1)C(=O)c1cnc2ccccc2c1 [PF-05105679]
% of effect [1]: 26%
% of effect [2]: 21%
% of effect [3]: 21%
% of effect [4]: 35%
% of effect [5]: 32%
% of effect [6]: 20%
% of effect [7]: 25%
% of effect [8]: 18%
% of effect [9]: 21%
% of effect [10]: 22%
% of effect [11]: 32%
Ki [12]: 1020 nM

O=C(c1ccc(F)cc1)N1CC(COc2ccc(Br)cc2)(C(=O)O)C1 [PF-04475866]
Ki [13]: > 10000 nM
Ki [14]: > 10000 nM

O=C(Nc1cccnn1)N1CC(C/C=C/c2cncc(Oc3ccc(C(F)(F)F)cn3)n2)C1
Ki [15]: 249 nM
Ki [16]: 1340 nM
Ki [17]: 1660 nM
Ki [18]: 596 nM
Ki [19]: 472 nM
% of control [20]: 1.4%
% of control [21]: 0%
Ki [22]: 1140 nM
Ki [23]: 437 nM
% of control [24]: 0%

O=C(Nc1cccnn1)N1CCC(=Cc2cccc(Oc3ccc(C(F)(F)F)cn3)c2)CC1
Ki [25]: 1140 nM
% of control [26]: 42%
% of control [27]: 0%
% of control [28]: 45%
